One data set deals with Akt. Description: Immunoblot of phosphorylated and total Akt in hippocampus after i.p. injection. In kind it is in vivo, mouse. Particulars: acute NB001 1 mg kg^-1 IP, 1 h after injection. On the procedure:
(§1) Hippocampal tissues were collected from 3-month-(+/−10 days) old mice. […] The primers used for Adcy1 were […] (forward) and […] (reverse). The protein levels in hippocampal tissues collected from mice were determined by western blot using anti-ADCY1 (Sigma, Cat # SAB4500146-100UG, 1:1,000 dilution), anti-p-ERK1/2 (Cell Signaling, Cat # 9101L, 1:1,000 dilution), anti-pAkt (Cell Signaling, Cat # 9271, 1:1,000 dilution), anti-pS6K1 (Cell Signaling, Cat # 9204L for the detection of phosphorylation at Thr421/Ser424, Cat # 9234S for the detection of phosphorylation at Thr389, 1:1,000 dilution), anti-ERK1/2 (Cell Signaling, Cat # 9102L, 1:1,000 dilution), anti-Akt (Cell Signaling, Cat # 9272S, 1:1,000 dilution), anti-S6K1 (Cell Signaling, Cat # 9202L, 1:1,000 dilution) and anti-β-actin antibody (Sigma, Cat # A5441; 1:5,000 dilution). Following incubations with infrared fluorescence (IRDye)-conjugated secondary antibodies (1:5,000, LI-COR Biosciences, Cat # 926–32211 and 926–68070), signals were detected using the Odyssey system (LI-COR Biosciences). The un-cropped western blots are shown in Supplementary Fig. 10.
(§2) NB001 was dissolved in water to give a 25 mM stock solution. The stock was diluted in saline and IP injected into mice at 1 mg kg^−1 body weight. In all cases, the drug was administered 1 h before testing. Control mice were treated similarly but injected with saline.
Background: A western blot detects proteins with antibodies after separation by electrophoresis.

Data set [1] concerns WT and Fmr1 KO mice. Kind of data set: 3-chamber social interaction test. It counts as in vivo, mouse. To be noted: NB001 1 mg kg^-1 IP, 1 h before testing; relative to WT level. How it is done: Social interaction was determined by the 3-chamber test as described. Mouse at 3 months (+/−10 days) of age was placed in a 3-chamber social interaction box and allowed to explore freely for 5 min. […] During the test, mouse was placed in the center chamber and the entrances to the side chambers were blocked. A novel stimulus mouse in a wire enclosure and an empty wire enclosure were placed in one of the side chambers, respectively. The entrances were then opened and the activity of the test mouse was recorded. Time spent in each of the chambers and time spent sniffing the stranger mouse enclosure versus the empty enclosure were recorded.
as §2

Data set [2] concerns WT and Fmr1 KO mice. Kind of data set: Audiogenic seizures (AGS) induced by 120 dB sound. In kind it is in vivo, mouse. Particulars: NB001 1 mg kg^-1 IP; for % Clonic/tonic seizure / % Death / % Wild running: 1 h before testing, 120 dB. On the procedure: Audiogenic seizures (AGS) were examined with 21- to 24-day-old-mouse (7), as this phenotype is dependent on the age of the mouse and only detected in juvenile Frm1 KO mouse. Mouse was placed in a box (30 cm L × 17 cm W × 12 cm H) with a flat plastic lid. A personal alarm (Streetwise, item # SWPDAL) was taped to the lid of the box and wired to a DC power supply to keep the sound amplitude constant. The mouse was allowed to acclimatize to the box for 5 min, following which 120 dB sound was emitted from the alarm for 2 min. The number of mice undergoing seizure activity within the 2-min period was counted. Audiogenic seizures were classified into different stages: wild running, clonic/tonic seizure and death.
as §2
To inhibit phosphodiesterase (PDE), rolipram was dissolved in 10% kolliphore and IP injected into mice at 0.5 or 0.03 mg kg^−1. The use of the higher dose (that is, 0.5 mg kg^−1) was to ensure sufficient inhibition of PDE[44][45]. […] Rolipram- or vehicle (10% kolliphore)-injected mice were examined with light/dark test and AGS 30 min after drug administration.

A further data set has as its system S6K1. Description: Immunoblot of phosphorylated and total S6K1 in hippocampus after i.p. injection. In kind it is in vivo, mouse. On the procedure:
as §1, §2

The subject of the next data set is mice. Kind of data set: NB001 toxicology study (body weight, organ weight, histology). It counts as in vivo, mouse. On the procedure: Mice at 3 months (+/−10 days) of age were IP injected with NB001 twice daily at 50 mg kg^−1 for 2 weeks. Clinical observations were performed twice daily and body weights were measured on various days during the dosing regimen. At the end of the dosing period, mice were killed and blood was collected for clinical pathology (Diagnostic Center for Population and Animal Health, Michigan State University). The liver and kidney were collected and fixed in 10% buffered formalin (INVIVO facility at Michigan State University).

Data set [3] is described as follows: NB001 pharmacokinetic study, plasma and brain levels by LC/MS/MS. It counts as in vivo, mouse. On the procedure: (§3) Following IP injection of NB001 (20 mg kg^−1), mice were killed at various time points, and 0.5–0.8 ml of blood was drawn from a cardiac puncture into a 1 ml syringe, which was pre-treated with NaHeparin. The blood was collected into 1.5 ml microfuge tubes coated with NaHeparin and put on ice immediately. Samples were centrifuged at 15,000 r.p.m. for 15 min. Blood plasma was collected from the upper layer, leaving the blood cells in the tube. The plasma was frozen at −80 °C for later analysis. Brains were taken out and weighed immediately. Brains were frozen at −80 °C for later preparation and analysis. The samples were subjected to LC/MS/MS with Turbo-Ionspray Interface used in the positive ion-mode (Pharmacokinetics Core, University of Michigan). Mouse liver microsome stability assay was performed by the Pharmacokinetics Core at University of Michigan.

A short description of data set [4]: Mouse liver microsome stability assay. Particulars: incubation with liver microsomes, 0-60 min. In kind it is in vitro ADME. On the procedure: as §3
Where [5] appears, read: NB001 50 mg kg^-1 IP twice a day for 14 days.
The mark [6] stands for this setting: IP injection, 20 mg kg^-1, mice.

Take `Nc1ncnc2c1ncn2CCNCCCCCO` [NB001, 5-{[2-(6-amino-9H-purin-9-yl)ethyl]amino}-1-pentanol]: the “level of pAkt” value in the data set on Akt is reported as “not affected”. Further, the “reduced social interaction in Fmr1 KO mice” value with WT and Fmr1 KO mice [1] was “normalized”. Also, in the data set with WT and Fmr1 KO mice [2] (Fmr1 KO mice), the “occurrence of AGS versus vehicle (saline)-injected controls” value is “less occurrence”, the “% Clonic/tonic seizure” value amounted to 5.8%, the “% Death” value turned out to be 5.8% and the “% Wild running” value worked out at 35.2%. Also, in the data set with WT and Fmr1 KO mice [2] (WT mice), the “% Clonic/tonic seizure” value is reported as 0%, the “% Death” value was found to be 0% and the “% Wild running” value stood at 0%. Further, the “elevated level of pS6K1 (at Thr421/Ser424) in the hippocampus” value with S6K1 (Fmr1 KO mice, NB001 1 mg kg^-1 IP, 1 h after injection, relative to WT levels) was “normalized”. Also, the “phosphorylation of S6K1 in WT mice” value in the data set on S6K1 (WT mice, NB001 1 mg kg^-1 IP, hippocampus) is “did not cause measurable changes”. Also, the “level of pS6K1 at PI3K target site Thr389” value with S6K1 (hippocampus, acute NB001 1 mg kg^-1 IP, 1 h after injection) is “not affected”. For the same molecule, in the data set with mice (setting [5]), the body weight result is reported as “did not affect”; the “weight of major organs including heart/lung, kidney and liver” value is “did not affect”. The “histopathology in kidney and liver” value in the data set on mice (NB001 50 mg kg^-1 IP twice a day for 14 days, H&E staining) was “no significant sign of histopathology”. For the same molecule, the “side effects following two weeks of high dose administration” value in the data set on mice (NB001 50 mg kg^-1 twice a day for 14 days) is “no significant side effects”. Further, in data set [3] (setting [6]), the absorption to plasma entry is on record as “absorbed to the blood stream” and the distribution to brain entry is “distributed to the brain”. In addition, in data set [3] (conclusion from plasma/brain levels and ref 40), the blood-brain barrier crossing result is reported as “can cross the blood–brain barrier”. The “stability in mouse liver microsome assay” value in data set [4] is “stable and resistant to degradation”.

The values are drawn from paper PMC5321753, “Enhanced expression of ADCY1 underlies aberrant neuronal signalling and behaviour in a syndromic autism model” (Nature Communications, 2017).
